Key:
Pasteurella multocida [1] = assay: Growth curve with exogenous citric acid; format: cell-based; conditions: citric acid 1, 2, 3 mg/mL alone; FIG. 16
Description: Here, 1 mL of Pasteurella multocida (1×10^9 CFU) at the logarithmic growth stage was added into 100 mL of fresh and sterile Martin broth medium containing different concentrations of citric acid (CA-1 mg/ml, CA-2 mg/mL, and CA-3 mg/mL), and citric acid-free DMSO was used as a solvent control group. The bacterial cells were cultured in a constant-temperature shaker at 37° C. and 220 rpm for […]. Then, the growth curve of the cells was determined. Each experiment was repeated for three times, and each group was set in triplicate.

Pasteurella multocida [2] = assay: Growth curve with melatonin and citric acid; format: cell-based; conditions: MT 1-3 mg/mL with CA 1-3 mg/mL, 12 h; FIG. 17
Description: 1 mL of Pasteurella multocida (1×10^9 CFU) at the logarithmic growth stage was also added into 100 mL of fresh and sterile Martin broth medium containing different concentrations of melatonin and citric acid (CA) (MT-1 mg/mL, MT-1 mg/mL-CA-1 mg/mL, MT-1 mg/mL-CA-2 mg/mL, MT-1 mg/mL-CA-3 mg/mL; MT-2 mg/mL, MT-2 mg/mL-CA-1 mg/mL, MT-2 mg/mL-CA-2 mg/mL, MT-2 mg/mL-CA-3 mg/mL; MT-3 mg/mL, MT-3mg/mL-CA-1 mg/mL, MT-3 mg/mL-CA-2 mg/mL, and MT-3 mg/mL-CA-3 mg/mL). DMSO not containing melatonin and citric acid was used as a solvent control group, and the bacterial cells were cultured in a constant-temperature shaker at 37° C. and 220 rpm for 12 h. Then the growth curve of the cells were determined. Each experiment was carried out for three times, and each group was set in triplicate.

Pasteurella multocida [3] = assay: Leakage of cell contents with melatonin and citric acid; format: cell-based; conditions: MT with CA (1/1, 2/2, 3/3 mg/mL), 12 h
Description: Additionally, 1 mL of Pasteurella multocida (1×10^9 CFU) at the logarithmic growth stage was added into 100 mL of fresh and sterile Martin broth medium containing different concentrations of melatonin and citric acid (CA) (MT-1 mg/mL, MT-2 mg/mL, MT-3 mg/mL, CA-1 mg/mL, CA-2 mg/mL, CA-3 mg/mL, MT-1 mg/mL-CA-1 mg/mL, MT-2 mg/mL-CA-2 mg/mL, MT-3 mg/mL-CA-3 mg/mL). The melatonin-free DMSO was used as a solvent control group, and the bacterial cells were cultured in a shaker at 37° C. and 220 rpm for 12 h. Thereafter, 1 mL of the bacterial solution was taken and centrifuged at 3000 r/min for 10 minutes, and the supernatant and precipitated cells were collected, respectively. At the same time, 2.5 mmol/mL of […] (ONPG) and Pasteurella multocida were added to detect ([…]. The concentrations of protein, alkaline phosphatase (AKP) and reducing sugar in the supernatant were determined sequentially using respective determination kits. The β-galactosidase in the supernatant was determined by measuring the optical density at 420 nm (OD420). Each experiment was carried out for three times, and each group was set in triplicate.

P. multocida cells = assay: SEM and TEM morphology of bacterial cells; format: cell-based, Pasteurella multocida; conditions: combined action of melatonin and citric acid; FIG. 18
Description: The effect of melatonin on the morphologies of P. multocida cells were evaluated employing SEM and TEM. 1 mL of fresh Pasteurella multocida (1×10^9 CFU) at the logarithmic growth stage was added into 100 mL of fresh Martin liquid medium containing different concentrations (1, 2 or 3 mg/mL) of MT. MT-free DMSO was used as a solvent control group and ampicillin (100 μg/mL) was used as a positive control group. All cultures were shaken at 220 rpm in a shaker at 37° C. for 8 hours, 12 hours or 16 hours. The bacterial samples were centrifuged at 3000 r/min for 10 minutes, the supernatant was removed, and cells were collected and washed with PBS for 3 times. Then the cells were fixed with a fixation solution of 2.5% fresh glutaraldehyde for 6 hours, and washed with PBS for 3 times, each time for 10 minutes. Subsequently, the SEM samples were dehydrated with 50%, 70%, 80% and 90% ethanol for 15 minutes respectively, and then dehydrated with 100% ethanol for 3 times, each time for 30 minutes. Ethanol was removed by washing with tert-butyl alcohol for three times, each time for 30 minutes. The samples were dried by a freeze dryer and plated with 10 nm of gold film by an ion sputtering device. The samples were examined using a field scanning electron microscope (FESEM, Hitch SU8010).
The TEM samples were fixed with 1%-2% […] for 2-3 hours, and washed with […] 3 times, each time for 10 minutes. The samples were dehydrated with 30%, 50%, 70%, 80% and 90% ethanol for 20 minutes respectively, and then dehydrated with 100% ethanol 3 times, each time for 30 minutes. Ethanol was replaced with acetone three times, each time for 30 minutes. The bacterial samples were placed on a copper grid with a formvar membrane, and negatively stained with phosphotungstic acid (2% v/v, pH=6.7). The surface area of the sample was less than 0.2 mm×0.2 mm, and slice thickness was between 50 and 90 nm (Lycra UC7). The samples were detected by TEM (Hitachi H-7650) at 80 kV, and photographs of the samples were taken by a Gatan832 CCD camera (Gatan). […]

Klebsiella pneumoniae = assay: Growth curve with melatonin and citric acid; format: cell-based; conditions: MT 1-3 mg/mL with CA 1-3 mg/mL, FIG. 27
Description: (§1) In additional studies, 1 mL of Klebsiella pneumoniae, Pseudomonas aeruginosa, Diplococcus pneumoniae and Streptococcus pneumoniae at the logarithmic growth stage was added into 100 mL of fresh and sterile Martin broth medium containing different concentrations of melatonin and citric acid (CA) (MT-1 mg/mL, MT-1 mg/mL-CA-1 mg/mL, MT-1 mg/mL-CA-2 mg/mL, MT-1 mg/mL-CA-3 mg/mL; MT-2 mg/mL, MT-2 mg/mL-CA-1 mg/mL, MT-2 mg/mL-CA-2 mg/mL, MT-2 mg/mL-CA-3 mg/mL; MT-3 mg/mL, MT-3 mg/mL-CA-1 mg/mL, MT-3 mg/mL-CA-2 mg/mL MT-3 mg/mL-CA-3 mg/mL).

Pseudomonas aeruginosa = assay: Growth curve with melatonin and citric acid; format: cell-based; conditions: MT 1-3 mg/mL with CA 1-3 mg/mL, FIG. 27
Description: as §1

Compound: O=C(O)CC(O)(CC(=O)O)C(=O)O [citric acid]
- growth of Pasteurella multocida (Pasteurella multocida [1]): promotes the growth
- effect of added citric acid on antibacterial activity of melatonin (Pasteurella multocida [2]): reduces the antibacterial activity of melatonin
- melatonin-induced release of reducing sugar (Pasteurella multocida [3]; FIG. 19): significantly reduces
- melatonin-induced release of proteins (Pasteurella multocida [3]; FIG. 20): significantly reduces
- melatonin-induced release of AKP enzymes (alkaline phosphatase) (Pasteurella multocida [3]; FIG. 21): significantly reduces
- melatonin-induced release of β-galactosidase (Pasteurella multocida [3]; FIG. 22): significantly reduces
- melatonin-induced activity (release) of ATPase (Pasteurella multocida [3]; FIG. 23): significantly reduces
- cytoplasmic vacuolization and irregular cell membrane caused by melatonin (TEM) (P. multocida cells): disappeared
- effect of exogenous citric acid on bacteriostatic effect of melatonin (Klebsiella pneumoniae): can reduce the bacteriostatic effect of melatonin
- effect of exogenous citric acid on bacteriostatic effect of melatonin (Pseudomonas aeruginosa): can reduce the bacteriostatic effect of melatonin
